According to publication PMC10636063, “Progesterone activation of β1-containing BK channels involves two binding sites” (Nature Communications, 2023):
Several values for one entry are separate records, joined by “and”; a condition that tells them apart may be missing. Equal values may be shown once.

How the values were obtained:
[1] = test system: β1-β4 chimera (loop of β4 with β1 TMs); assay: Thermal unfolding (MST) of β1-β4 chimera; assay type: binding; conditions: 0.004 μM
Source text: (§1) BK channel-forming slo1 cDNA (cbv1 isoform; AY330293) was cloned from rat cerebral artery SM cells, and inserted into pcDNA3.1 vector as described. BK β1 cDNA (KCNMB1 product; NP_011452; FJ154955) were isolated from rat cerebral artery SM cells and cloned as described. β4 cDNA (KCNMB4; NP_055320; AY028605) were generously provided by Dr. Ligia Toro. CHO cells were transiently transfected with cbv1 ± β1-, or β4-carrying pcDNA3.1 using X-tremeGENE HP (Sigma-Aldrich). Mutations to β1/4 cDNAs were conducted by Genscript, with sequences being confirmed to be >99% identical to KCNMB1 product; NP_011452 or β4 KCNMB4; NP_055320; respectively. β1/4 and mutant constructs were flag-tagged (DYKDDDDK-tag) by Genscript services for subsequent immunoprecipitation and use in microscale thermophoresis studies.
(§2) Wt β1, wt β4 and mutant constructs were purified by immunoprecipitation using Dynabeads Protein G Kit (10007D by Invitrogen) and following the manufacturer’s instructions. […] The unfolding profile of a protein is a plot of its fluorescence signal against temperature. […] During the heating process, fluorescence is recorded at 330 and 350 nm. The resulting fluorescence ratio change is then analyzed for onset and inflection points. The temperature of onset and inflection is determined using built-in analysis function in Nanotemper PR.therm-control software. […]

β1Y32F = target: T1, β1Y32F (Rattus norvegicus, UniProt P97678, Y32F); assay: Thermal unfolding (MST) of β1Y32F; assay type: binding
T1 construct: FLAG (DYKDDDDK); made in house; host or cells: CHO cells, transient transfection, anti-flag immunoprecipitation
T1 sequence (P97678 whole entry Y32F): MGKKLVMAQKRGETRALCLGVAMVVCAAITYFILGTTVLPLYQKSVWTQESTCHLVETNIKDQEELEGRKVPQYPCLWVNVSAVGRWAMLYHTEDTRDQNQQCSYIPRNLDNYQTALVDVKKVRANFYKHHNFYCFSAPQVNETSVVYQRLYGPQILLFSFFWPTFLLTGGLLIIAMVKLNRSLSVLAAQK
Source text: as §1, §2

cbv1+β1Y32V = target: T2, cbv1+β1Y32V (Rattus norvegicus, UniProt P97678, Y32V); assay: Channel activity (NPo) in POPE/POPS bilayers, cbv1+β1Y32V; assay type: biochemical; conditions: for normalized NPo, time course Fig 2E: Y32V PROG
T2 construct: made in house; host or cells: CHO cells, transient transfection; sucrose-gradient membrane preparation
T2 sequence (P97678 whole entry Y32V): as the sequence (P97678 whole entry Y32F) above, with F32V counted along it
T2 sequence (Q62976 1-1148 isoform Q62976-2 partner): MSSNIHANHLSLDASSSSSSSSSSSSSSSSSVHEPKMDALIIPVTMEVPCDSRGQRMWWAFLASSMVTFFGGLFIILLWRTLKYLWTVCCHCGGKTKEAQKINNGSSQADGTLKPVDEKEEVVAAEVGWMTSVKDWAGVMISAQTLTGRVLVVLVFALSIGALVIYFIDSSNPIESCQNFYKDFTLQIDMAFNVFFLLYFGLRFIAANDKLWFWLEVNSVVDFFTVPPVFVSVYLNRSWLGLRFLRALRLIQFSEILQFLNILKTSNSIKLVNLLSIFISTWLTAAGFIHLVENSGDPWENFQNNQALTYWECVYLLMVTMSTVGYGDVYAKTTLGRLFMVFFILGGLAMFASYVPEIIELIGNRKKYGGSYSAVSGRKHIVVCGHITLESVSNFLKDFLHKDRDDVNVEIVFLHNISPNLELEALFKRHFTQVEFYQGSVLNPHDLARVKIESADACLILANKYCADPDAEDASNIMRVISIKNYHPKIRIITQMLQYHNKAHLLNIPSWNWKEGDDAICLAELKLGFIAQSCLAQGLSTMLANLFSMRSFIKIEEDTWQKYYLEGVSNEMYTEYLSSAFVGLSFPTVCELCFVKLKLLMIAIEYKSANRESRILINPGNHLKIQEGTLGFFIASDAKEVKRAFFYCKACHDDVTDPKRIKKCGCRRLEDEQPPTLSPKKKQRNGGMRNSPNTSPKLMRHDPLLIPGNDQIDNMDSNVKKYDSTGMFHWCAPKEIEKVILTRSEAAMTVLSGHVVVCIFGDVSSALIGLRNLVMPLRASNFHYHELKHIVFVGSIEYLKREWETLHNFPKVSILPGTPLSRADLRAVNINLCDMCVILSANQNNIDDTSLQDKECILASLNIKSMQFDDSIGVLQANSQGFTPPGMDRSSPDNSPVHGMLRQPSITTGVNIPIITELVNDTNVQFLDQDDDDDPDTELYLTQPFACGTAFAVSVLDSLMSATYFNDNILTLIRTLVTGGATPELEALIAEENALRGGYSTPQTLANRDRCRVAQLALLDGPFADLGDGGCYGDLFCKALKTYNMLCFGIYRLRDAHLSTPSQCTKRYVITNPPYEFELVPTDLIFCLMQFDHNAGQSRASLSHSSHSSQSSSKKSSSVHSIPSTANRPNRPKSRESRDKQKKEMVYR
Source text: as §1
Proteins for electrophysiological recordings in artificial lipid bilayers remained untagged. Cells were transiently transfected as described above, pelleted and re-suspended on ice in 10 ml of buffer solution of the following composition (mM): 30 KCl, 2 MgCl2, 10 HEPES, 5 EGTA; pH 7.2. A membrane preparation was obtained using a sucrose gradient as described. Aliquots were stored at −80 °C. BK channel-mediated ionic current was recorded in planar lipid bilayers consisting of a POPE:POPS 3:1 (w/w) mixture. Lipid mixtures were dried under N2 and re-suspended in 25 mg/ml of n-decane BK currents following incorporation into horizontal bilayers at 300/30 mM cis/trans gradient as detailed elsewhere. Ion currents were obtained during a 10-min gap-free recording at 0 mV in the presence of 0.01, 10 μM PROG, 10 μM PROG-oxime, or vehicle control (dimethyl sulfoxide; DMSO). Currents were obtained in gap-free mode using a Warner BC-525D amplifier, low pass-filtered at 1 kHz and sampled at 5 kHz with Digidata 1550B/pCLAMP 11 (Molecular Devices). For comparison with previous data from us[16],[17],[45]–[47], studies were conducted at 20–22 °C. PROG stock, oxime stock or vehicle control (DMSO) was added to the bilayer cis chamber to reach final concentrations (0.01–10 µM), with all compounds being dissolved with the same concentration of DMSO (0.1%); n = 5–10 for each group.
Patch-clamp and bilayer data were analyzed using Clampfit 10.7 software (Molecular Devices). NPo was used as an index of channel steady-state activity where N = number of channels in the patch (defined as a maximal number of opening levels at Po≤1) and Po=single channel open probability. Drug-induced NPo changes were determined by comparing baseline NPo (i.e., NPo with the patch/cell perfused with bath solution) to the NPo from the same patch/cell exposed to the agent under study (DMSO/PROG/oxime) dissolved in bath solution. NPo and mean open time values were automatically calculated using Clampfit 10.7, the latter using a 50% threshold detection event.

MCA branches (C57BL/6J) = assay: EtOH-induced cerebrovascular constriction in vivo (cranial window); parameters: species or system mouse; conditions: 10 µM PROG + 50 mM EtOH infused
Experimental: Eight-12 week-old male and female C57BL/6J mice were anesthetized with a mixture of xylazine/ketamine (12/100 mg per kg) and kept anesthetized for the duration of the experiment with subsequent ketamine doses (50 mg/kg of weight) as needed. A catheter was inserted into the carotid artery so that the infusion went straight to the brain rather than towards the thoracic cavity. An area of the skull was cleared of tissue and thinned to expose the branching arteries originating from the MCA on the side the catheter was inserted, above the zygomatic arch, between the ear and eye of the skull[19],[34]. The exposed arteries branching out from the MCA were monitored using a Leica MC170 HD microscope with a mounted camera (Leica M125 C) connected to a computer monitor. Drugs were diluted to their final concentration in sodium saline (0.9% NaCl) and administered via catheter at 0.1 ml/25 g of weight. Cranial window images before and after drug administration were acquired every 60 seconds for subsequent analysis.

[2] = test system: BK channel, construct not given; assay: Channel activity (NPo) time course, Fig 4E block headed only '10 uM PROG'; assay type: biochemical
[3] = time 1 min (normalisation reference)

CC(=O)[C@H]1CC[C@H]2[C@@H]3CCC4=CC(=O)CC[C@]4(C)[C@H]3CC[C@]12C [PROG, Progesterone]
effect on thermal unfolding / binding [1]: still bound and destabilized the protein structure | binding (β1Y32F): still bind PROG | action on channel activity (NPo) (cbv1+β1Y32V; 10 µM, vs DMSO): effectively abolished PROG action | normalized NPo, time course Fig 2E (cbv1+β1Y32V; [3]): 1 | normalized NPo, time course Fig 2E (cbv1+β1Y32V; time 3 min): 1.125 and 0.8919 and 0.9083 and 0.945 and 0.929 | normalized NPo, time course Fig 2E (cbv1+β1Y32V; time 5 min): 0.9853 and 0.9339 and 0.8202 and 0.8981 and 0.6799 | normalized NPo, time course Fig 2E (cbv1+β1Y32V; time 6 min): 1.106 and 1.228 and 1.117 and 1.276 and 0.8487 | normalized NPo, time course Fig 2E (cbv1+β1Y32V; time 7 min): 1.144 and 0.9028 and 1.206 and 0.9453 | normalized NPo, time course Fig 2E (cbv1+β1Y32V; time 8 min): 0.6757 and 1.202 and 0.918 and 1.1397 | normalized NPo, time course Fig 2E (cbv1+β1Y32V; time 9 min): 0.5676 and 0.9266 and 0.822 and 1.088 | normalized NPo, time course Fig 2E (cbv1+β1Y32V; time 10 min): 0.7195 and 0.8661 and 0.9555 and 1.102 | effect on EtOH-induced cerebrovascular constriction (MCA branches (C57BL/6J)): still protected against EtOH-induced cerebrovascular constriction | normalized NPo, time course Fig 4E [2, 3]: 1 | normalized NPo, time course Fig 4E ([2]; time 2 min): 0.9853 and 1 and 0.9322 and 1.014 and 0.7178 | normalized NPo, time course Fig 4E ([2]; time 4 min): 1.015 and 1.069 and 1.029 and 1.047 and 1.067 | normalized NPo, time course Fig 4E ([2]; time 5 min): 1.11 and 1.053 and 1.066 and 1.023 and 1.182 | normalized NPo, time course Fig 4E ([2]; time 6 min): 1.088 and 1.041 and 1.129 and 1.028 and 1.207 | normalized NPo, time course Fig 4E ([2]; time 7 min): 1.162 and 1.118 and 1.064 and 0.8935 and 1.1318 | normalized NPo, time course Fig 4E ([2]; time 8 min): 1.096 and 1.061 and 1.045 and 1.148 and 1.63 | normalized NPo, time course Fig 4E ([2]; time 10 min): 1.11 and 0.7114 and 1.049 and 1.394 and 1.416
